From patent publication US10624867B2, “Transdermally-delivered combination drug therapy for pain” (BioChemics, Inc., priority 2017, dated 2020)

Experiments:
[1] = tested on: Complete Freund's Adjuvant (CFA)-induced thermal hyperalgesia; test: CFA inflammation model, thermal response (paw withdrawal latency to radiant heat), set A; type: in vivo, Sprague-Dawley rats; settings: for thermal antihyperalgesia: topical cream to hindpaw, day 3 at 2 and 4 hours after treatment
Protocol: Baselines were established for all rats for thermal response latency before intraplantar (i.pl.) injection of the inflammatory agent. Three days after injection of the inflammatory agent (CFA), the degree of thermal hypersensitivity was determined followed by topical application to anesthetized rats of i) the drug-free cream, creams containing ii) ibuprofen, iii) gabapentin, and each the combination of ibuprofen with gabapentin using a topical cream optimized for deep skin penetration/vascular access. Six experimental groups were used in total Application of ibuprofen cream served both as an active pharmacological agent and positive control throughout these studies. The drug formulation and control cream (negative control) was applied to the glabrous side of the rat hindpaw using a previously published method. Nozaki-Taguchi, N. and T. L. Yaksh., Characterization of the Antihyperalgesic Action of a Novel Peripheral Mu-opioid Receptor Agonist-loperamide, Anesthesiology, 90: 225-234, 1999; Iadarola, M. J., et al., Increased Spinal Cord Dynorphin mRNA During Peripheral Inflammation, NIDA Re.s Monogr., 75: 406-409, 1986.
Rats were isoflurane-anesthetized (1-2%) and the cream (0.2 g) applied gently with a finger for 1 minute to the glabrous skin of the hindpaw. For low drug concentrations, 5% formulations of all drugs were. For high drug concentrations, 10% cream formulations were employed. […] Upon recovery from anesthesia (within 10 minutes of cessation of anesthetic), rats were moved to plexiglass enclosures for sensory assessment. Efficacy was initially tested at 1, 2, 4, 8, 24 hours after cream treatment; depending on initial results. Time was revised to track the onset and offset of drug effects.
(§1) Two parallel studies (two arms) were done, each with four treatment groups, with four Sprague-Dawley rats per group. The rats used were male rats weighing 175-200 grams. Half of the rats were given injections of 1:1 complete Freund's adjuvant (CFA) on day 0 to produce long-term inflammation of the left hindpaw; the other half of the rats were given spared nerve injury (SNI, transection of 2 of 3 branches of the sciatic nerve) in the lower thigh on day 0.
(§2) Before treatments, rats' baseline response thermal latencies (on a glass surface suspended above a moveable heat lamp) or mechanical thresholds (on a wire mesh surface suspended above a moveable electronic von Frey stimulator) were determined after 15 min acclimatization on the thermal or mechanical testing apparatuses.
(§3) The CFA model of persistent inflammatory hyperalgesia in one hindpaw of the rats was utilized (see Gold and Gebhart, Nature Medicine 16: 1248-1257, 2010). This model produces edema, reddening, inflammation, and behavioral hypersensitivity. Experimental groups of rats were anesthetized with isoflurane before receiving an intraplantar injection into the left hindpaw of 100 μl of CFA (1:1 with sterile PBS) using a sterile 0.5 ml syringe. The CFA model produced inflammatory signs accompanied by thermal and mechanical hyperalgesia in the injected hindpaw within six to eight hours. The hypersensitivity peaks at 3 days, which was the first testing day of the analgesic topical formulations in the CFA model.
One of four treatments was applied to each rat on days 3, 7 and 11 after CFA injection or on days 7, 14 and 21 after SNI application. […] For the formulations with ibuprofen and/or gabapentin, the formulation also contained vasodilators arginine and methyl nicotinate, chelator EDTA, solvents dimethyl acetamide and water, osmolyte potassium hydroxide, lipids soy bean oil and olive oil, and various other excipients including eucalyptol, gelcarin GP-379NF, glyceryl monostearate, menthol, methyl paraben, propylparaben, phenoxyethanol, permulen TR-1, phospolipon 90H, ST elastomer, urea, and Vitamin E TPGS. […]

[2] = tested on: CFA inflammation-induced mechanical hyperalgesia; test: CFA inflammation model, mechanical response (von Frey stimulation), set A; type: in vivo, Sprague-Dawley rats; settings: CFA rats
Excerpt: as §1, §2, §3
One of four treatments was applied to each rat on days 3, 7 and 11 after CFA injection or on days 7, 14 and 21 after SNI application. […] For the formulations with ibuprofen and/or gabapentin, the formulation also contained vasodilators arginine and methyl nicotinate, chelator EDTA, solvents dimethyl acetamide and water, osmolyte potassium hydroxide, lipids soy bean oil and olive oil, and various other excipients including eucalyptol, gelcarin GP-379NF, glyceryl monostearate, menthol, methyl paraben, propylparaben, phenoxyethanol, permulen TR-1, phospolipon 90H, ST elastomer, urea, and Vitamin E TPGS.
For application of the topical formulation, the rats were anesthetized with isoflurane for 30 min. while the creams were applied to both hindpaws to minimize oral absorption as described in Nozaki-Taguchi et al., Anesthesiology 90: 225-234, 1999; Iadarola et al., NIDA Res. Monogr. 75: 406-409, 1986. […]
In these studies, the sensory responsiveness to thermal (radiant heat) stimuli was assessed in terms of time to elicit paw withdrawal. […] Sensory responses to mechanical stimulus (von Frey stimulation) were also assessed prior to CFA injection and following several days after inflammation (FIGS. 2A-2C) or nerve injury (FIGS. 4A-5C). […]

[3] = CFA rats, days 7 and 12 post-CFA
[4] = day 11 at 2 hours after treatment
[5] = day 12 at 2 hours after treatment

| Compound | thermal antihyperalgesia (possible efficacy) on later days [1, 3] | thermal antihyperalgesia ([1]; CFA rats) | suppression of thermal hyperalgesia ([1]; CFA rats, transdermal delivery, drug alone) | efficacy against mechanical hyperalgesia, agent given alone [2, 4] | efficacy against mechanical hyperalgesia, agent given alone [2, 5] | reversal of hyperalgesia ([1]; CFA rats, cream applied for 20 minutes, 1 hour after treatment on day 3 post-CFA) | duration of beneficial impact of the drug ([1]; CFA rats, day 3 post-CFA) [h] | hyperalgesia after 24 hours ([1]; CFA rats, day 3 post-CFA, 24 hours after treatment) | statistical significance of the effect ([1]; CFA rats, day 3 post-CFA, vs vehicle (ANOVA, Dunnett)) | thermal antihyperalgesia (possible efficacy) on later days ([1]; CFA rats, days 7 and 11 post-CFA) | reversal of thermal hypersensitivity ([1]; FIGS. 1A-1C, at some time points during the testing period) |
| --- | --- | --- | --- | --- | --- | --- | --- | --- | --- | --- | --- |
| NCC1(CC(=O)O)CCCCC1 [gabapentin] | not repeated | borderline significant | failed to suppress | efficacious | efficacious | – | – | – | – | – | – |
| CC(C)Cc1ccc(C(C)C(=O)O)cc1 (stereo not drawn) [ibuprofen, 2-[4-(2-methylpropyl)phenyl]propanoic acid] | not repeated | borderline significant | – | efficacious | efficacious | completely reversed | 4 | completely returned to the baseline level | statistically significant | not repeated | significant reversal |
